Article PMC12664080, “Tetrazole-containing naphthalene bis-sulfonamide Keap1-Nrf2 interaction inhibitors with unexpected binding modes” (Redox Biology, 2025)

Legend:
NQO1 = NQO1 induction assay in Hepa1c1c7 cells; format: cell-based, mouse
Protocol: The method using Hepa1c1c7 cells has been described previously. Briefly, cells were seeded into 96-well plates (2 × 10^4 cells/200 μL per well) then incubated overnight at 37 °C. The cells were treated with compound (10 μM final concentration) or vehicle (final DMSO concentration 0.1 % DMSO) and incubated for a further 24 h or 48 h. The culture medium was aspirated and the cells treated with lysis buffer (50 μL per well, 0.1 % Tween 20 in 2 mM EDTA (pH 7.5)) then agitated for 15 min. Enzyme reaction mixture was added to each well (200 μL of 25 mM Tris buffer (pH 7.5) containing BSA (0.067 %), Tween20 (0.01 %), FAD (5 μM), G6P (1 mM), NADP (30 μM), G6P dehydrogenase (40 units), MTT (0.03 %), menadione (50 μM)) for 5 min then stop solution was applied (40 μL of 10 % SDS, final concentration 1.5 % SDS). Following brief agitation of the plate, the absorbance at 595 nm was measured. The background optical density was measured from wells containing tissue culture medium, lysis buffer, enzyme and stop solutions in the absence of Hepa1c1c7 cells. The change in background-corrected NQO1 activity (change in optical density) relative to the control was determined for each compound.

Nrf2 = assay: Immunoblotting of Nrf2 and HO-1 in Hepa1c1c7 cells; format: cell-based, mouse; conditions: 6-h incubation, 10 μM or 50 μM
Protocol: Hepa1c1c7 cells (5 × 10^5 cells/well, n = 3) were seeded on six-well plates, and on the next day were treated with compound 25 (10 μM or 50 μM) or vehicle (0.1 % DMSO) for 6 h. Cells were washed twice in PBS, and lysed in 200 μL of SDS lysis buffer containing 2 % SDS, 62.5 mM Tris-HCl pH 6.8 and 10 % glycerol. The cell lysates were boiled for 3 min, sonicated for 25 s (25 %, 4 s on, 1 s off), supplemented with DTT up to 0.1 M and Bromophenol Blue, and snap-frozen. The lysates were thawed, and 20 μg of total protein was separated on a pre-cast NuPage gel under MOPS buffer, transferred onto nitrocellulose membrane and blotted with anti-Nrf2 (Cell Signaling Technology, clone D1Z9C, 1:1000 dilution), anti-HO1 (Abcam, ab13243, 1:2000 dilution) or anti-alpha tubulin (Abcam, clone EP1332Y, 1:5000 dilution) in 5 % milk in PBS with 0.1 % Tween, followed by appropriate secondary antibodies (LiCor BioSciences, 1:15000 dilutuon) and scanned using Odyssey CLx Imaging System.

Nrf2 target genes = assay: Gene expression analysis (real-time quantitative PCR) in Hepa1c1c7 cells; format: cell-based, mouse; conditions: 16-h incubation, 10 μM or 50 μM
Protocol: Hepa1c1c7 cells (5 × 10^5 cells/well, n = 3) were seeded on six-well plates, and on the next day were treated with compound 25 (10 μM or 50 μM) or vehicle (0.1 % DMSO) for 16 h. After two washes with PBS, the cells were lysed. RNA was then extracted, cDNA was synthesised, and the levels of mRNA for each gene were determined by real-time quantitative PCR (TaqMan). The levels of 18S mRNA in each sample were used as a control for normalization.

Keap1 Kelch domain = target: T1, Keap1 Kelch domain (Homo sapiens, UniProt Q14145); assay: Fluorescence polarisation (FP) competition assay; format: binding
T1 construct: made in house
T1 sequence (Q14145 322-609): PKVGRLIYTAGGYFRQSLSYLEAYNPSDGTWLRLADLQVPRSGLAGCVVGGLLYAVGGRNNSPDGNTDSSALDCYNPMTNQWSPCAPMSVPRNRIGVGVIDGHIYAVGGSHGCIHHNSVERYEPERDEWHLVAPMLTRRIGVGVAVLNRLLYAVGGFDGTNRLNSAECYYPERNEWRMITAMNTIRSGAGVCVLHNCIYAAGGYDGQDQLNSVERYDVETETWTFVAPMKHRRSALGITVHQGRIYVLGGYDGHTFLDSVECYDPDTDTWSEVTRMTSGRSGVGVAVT
Protocol: The FP assays were carried out according to previously described methods [[23],[31], [32], [33], [34]]. […] Following incubation under slow agitation (30 min at rt in the absence of light), the plates were transferred to a PHERAstar microplate reader and the FP was recorded. All measurements were recorded in triplicate. The data were normalised to the control and then fitted to a standard four-parameter logistic function using the Origin Pro software.

## COc1ccc(S(=O)(=O)N(CC(=O)O)c2ccc(N(Cc3nnn[nH]3)S(=O)(=O)c3ccc(OC)cc3)c3ccccc23)cc1 [Compound 25, N-(4-((N-((1H-tetrazol-5-yl)methyl)-4-methoxyphenyl)sulfonamido)naphthalen-1-yl)-N-((4-methoxyphenyl)sulfonyl)glycine]
NQO1; 48-h incubation
  specific enzyme activity of NQO1: increased
NQO1; Mus musculus, Hepa-1c1c7, 10 μM
  fold induction at 10 µM: 2.01 ± 0.05
Nrf2
  protein levels of Nrf2: increased
  protein levels of heme oxygenase 1 (HO-1): increased
Nrf2 target genes
  mRNA levels for Nrf2 target genes (NQO1, HO-1, GstP, Gclm, Gclc): increased
Keap1 Kelch domain; 200 nM Keap1 Kelch domain, 1 nM FITC-β-DEETGEF-OH
  IC50: 31 ± 2 nM
Keap1 Kelch domain; vs 2
  FP IC50 fold lower than the bis-acid 2: ~2 fold
Keap1 Kelch domain; vs 13
  FP IC50 fold lower than the bis-tetrazole 13: ~2.5 fold
